In US7582674B2, “Nutraceutical compositions and use thereof” (DSM IP Assets B.V., priority 2003, dated 2009):

Columns and labels:
[1] = tested on: murine macrophages RAW264.7; assay: Inhibition of NO (nitrite, Griess reaction) production in LPS-stimulated macrophages; format: cell-based
Procedure: (§1) In order to induce an in vitro ‘inflammatory response’, murine macrophages RAW264.7 were seeded into microtiter plates or 12-well plates and stimulated with lipopolysaccharide (LPS) without or with graded amounts of the test substances. Vehicle concentrations (i.e. DMSO) were kept constant. Culture supernatants were harvested after appropriate periods of time (4 to 24 hours). Prostaglandin E2 (PGE2) and nitrite produced from nitric oxide (NO) secreted into the culture medium were quantified by ELISA and the Griess reaction, respectively. The percentage of inhibition of PGE2 or NO production at a given concentration of the test substances (compared to maximal production by LPS-stimulated cells) was calculated.

[2] = tested on: murine macrophages RAW264.7; assay: Inhibition of PGE2 (ELISA) production in LPS-stimulated macrophages; format: cell-based; conditions: combination = actually determined inhibition
Procedure: as §1

CCC=CCC=CCC=CCC=CCC=CCCCC(=O)O [EPA, 5,8,11,14,17-eicosapentaenoic acid] showed an inhibition at 12.5 µM ([1]; Mus musculus, RAW264.7, Table 2, LPS stimulated macrophages, EPA 12.5 μM) of 12.9%.
Oc1ccc(C=Cc2cc(O)cc(O)c2)cc1 [Resveratrol, resveratrol] gave an inhibition at 10 µM ([1]; Mus musculus, RAW264.7, Table 1, LPS-stimulated macrophages, each substance at 10 μM, combination = actually determined inhibition) of 8.3%, an inhibition at 2 µM ([1]; Mus musculus, RAW264.7, Table 2, LPS stimulated macrophages, Resveratrol 2 μM) of 10% and an inhibition at 10 µM ([2]; Mus musculus, RAW264.7, Table 1, each substance at 10 μM) of 26.8%.
With (−)-Epigallocatechin gallate [EGCG] the “% inhibition NO” value ([1]; Table 1, LPS-stimulated macrophages, each substance at 10 μM, combination = actually determined inhibition) was 4.4% and the “% inhibition PGE2” value ([2]; Table 1, each substance at 10 μM) was 1.8%.
